The results in this text go back to patent publication US7704995B2 (Exelixis, Inc., priority 2003, dated 2010).

Some results are limits rather than exact numbers.

For this assay, the target named is T1, Chk1 (Homo sapiens, UniProt O14757).
T1 construct: purchased Upstate Biotechnology
T1 sequence (O14757 1-476): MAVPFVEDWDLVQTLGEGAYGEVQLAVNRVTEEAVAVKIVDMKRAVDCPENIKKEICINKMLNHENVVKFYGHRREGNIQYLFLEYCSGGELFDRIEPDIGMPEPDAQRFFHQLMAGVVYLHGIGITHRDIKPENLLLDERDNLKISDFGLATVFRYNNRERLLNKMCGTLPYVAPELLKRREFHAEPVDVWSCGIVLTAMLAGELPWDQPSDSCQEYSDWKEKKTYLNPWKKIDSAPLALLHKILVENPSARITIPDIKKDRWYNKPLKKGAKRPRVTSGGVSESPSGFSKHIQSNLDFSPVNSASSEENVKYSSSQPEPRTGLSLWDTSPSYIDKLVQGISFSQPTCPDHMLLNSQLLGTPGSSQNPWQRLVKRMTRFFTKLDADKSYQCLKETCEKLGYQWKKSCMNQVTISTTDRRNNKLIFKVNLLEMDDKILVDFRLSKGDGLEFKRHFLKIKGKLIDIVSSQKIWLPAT
Nature of the assay: Chk1 kinase assay: incorporation of γ-33P ATP into immobilized myelin basic protein. The class given is biochemical. The conditions noted are these: Table 11, Chk1 only; class symbols A-D; read-out: Chk1 IC50. An outline of the steps:
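MBP coated on plates (20 μg/ml) was phosphorylated by Chk1 (10 nM) or Chk2 (20 nM) with γ-33P ATP plus 10 μM (Chk1) or 30 μM (Chk2) unlabeled ATP, 1 h at room temperature, 1% DMSO. Bound radioactivity was counted by scintillation after washing; IC50 or Ki derived from fitted rate data.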

Take `Nc1ncc(-c2cccc(CNC(=O)c3ccc(Cl)cc3)c2)nc1C(=O)N[C@H]1CCCNC1` [Example 884, 3-amino-6-[3-({[(4-chlorophenyl)carbonyl]amino}methyl)phenyl]-N-[(3S)-piperidin-3-yl]pyrazine-2-carboxamide]: the IC50 is less than 50 nM.

On to `Nc1ncc(-c2cccc(NC(=O)Cc3ccc(Cl)cc3)c2)nc1C(=O)N[C@H]1CCCNC1` [Example 885, 3-amino-6-(3-{[(4-chlorophenyl)acetyl]amino}phenyl)-N-[(3S)-piperidin-3-yl]pyrazine-2-carboxamide], for which the IC50 was less than 50 nM.

Turning to `Nc1ncc(-c2cccc(NC(=O)Cc3c(Cl)cccc3Cl)c2)nc1C(=O)N[C@H]1CCCNC1` [Example 886, 3-amino-6-(3-{[(2,6-dichlorophenyl)acetyl]amino}phenyl)-N-[(3S)-piperidin-3-yl]pyrazine-2-carboxamide], the IC50 was less than 50 nM.

As to `Nc1ncc(-c2cccc(NC(=O)Cc3c(F)c(F)c(F)c(F)c3F)c2)nc1C(=O)N[C@H]1CCCNC1` [Example 887, 3-amino-6-(3-{[(pentafluorophenyl)acetyl]amino}phenyl)-N-[(3S)-piperidin-3-yl]pyrazine-2-carboxamide], the IC50 is less than 50 nM.

As to `Nc1ncc(-c2cccc(NC(=O)Cc3ccc(F)cc3Cl)c2)nc1C(=O)N[C@H]1CCCNC1` [Example 888, 3-amino-6-(3-{[(2-chloro-4-fluorophenyl)acetyl]amino}phenyl)-N-[(3S)-piperidin-3-yl]pyrazine-2-carboxamide], the IC50 is less than 50 nM.

Regarding `CSc1ccc(CC(=O)Nc2cccc(-c3cnc(N)c(C(=O)N[C@H]4CCCNC4)n3)c2)cc1` [Example 889, 3-amino-6-[3-({[4-(methylthio)phenyl]acetyl}amino)phenyl]-N-[(3S)-piperidin-3-yl]pyrazine-2-carboxamide], the IC50 was less than 50 nM.

As for `Nc1ncc(-c2cccc(NC(=O)Cc3ccc(Cl)cc3Cl)c2)nc1C(=O)N[C@H]1CCCNC1` [Example 890, 3-amino-6-(3-{[(2,4-dichlorophenyl)acetyl]amino}phenyl)-N-[(3S)-piperidin-3-yl]pyrazine-2-carboxamide], the IC50 was less than 50 nM.

As to `Nc1ncc(-c2cccc(NC(=O)c3cc(-c4ccc(Cl)cc4)cs3)c2)nc1C(=O)N[C@H]1CCCNC1` [Example 891, 3-amino-6-[3-({[4-(4-chlorophenyl)-2-thienyl]carbonyl}amino)phenyl]-N-[(3S)-piperidin-3-yl]pyrazine-2-carboxamide], the IC50 was less than 50 nM.

In the case of `Nc1ncc(-c2cccc(CNC(=O)c3ccc(Br)cc3)c2)nc1C(=O)N[C@H]1CCCNC1` [Example 892, 3-amino-6-[3-({[(4-bromophenyl)carbonyl]amino}methyl)phenyl]-N-[(3S)-piperidin-3-yl]pyrazine-2-carboxamide], the IC50 is less than 50 nM.

Consider `Nc1ncc(-c2cccc(CNC(=O)c3ccc4ccccc4c3)c2)nc1C(=O)N[C@H]1CCCNC1` [Example 893, 3-amino-6-(3-{[(naphthalen-2-ylcarbonyl)amino]methyl}phenyl)-N-[(3S)-piperidin-3-yl]pyrazine-2-carboxamide], for which the IC50 is less than 50 nM.

On to `Nc1ncc(-c2cccc(OCCN3CCN(c4ccccc4)CC3)c2)nc1C(=O)N[C@H]1CCCNC1` [Example 894, 3-amino-6-(3-{[2-(4-phenylpiperazin-1-yl)ethyl]oxy}phenyl)-N-[(3S)-piperidin-3-yl]pyrazine-2-carboxamide], for which the IC50 is less than 50 nM.

For the compound `Nc1ncc(-c2cccc(CNC(=O)Nc3ccc(Br)cc3)c2)nc1C(=O)N[C@H]1CCCNC1` [Example 895], the IC50 is less than 50 nM.

Regarding `Nc1ncc(-c2cccc(CNC(=O)Nc3ccc4ccccc4c3)c2)nc1C(=O)N[C@H]1CCCNC1` [Example 896], the IC50 was less than 50 nM.

As for `Nc1ncc(-c2cccc(NC(=O)Cc3ccc(F)cc3F)c2)nc1C(=O)N[C@H]1CCCNC1` [Example 897, 3-amino-6-(3-{[(2,4-difluorophenyl)acetyl]amino}phenyl)-N-[(3S)-piperidin-3-yl]pyrazine-2-carboxamide], the IC50 was less than 50 nM.

For the compound `Nc1ncc(-c2cccc(NC(=O)Cc3ccccc3F)c2)nc1C(=O)N[C@H]1CCCNC1` [Example 898, 3-amino-6-(3-{[(2-fluorophenyl)acetyl]amino}phenyl)-N-[(3S)-piperidin-3-yl]pyrazine-2-carboxamide], the IC50 was less than 50 nM.

Consider `Nc1ncc(-c2cccc(NC(=O)c3ccc(-c4cc(C(F)(F)F)ccc4Cl)o3)c2)nc1C(=O)N[C@H]1CCCNC1` [Example 899, 3-amino-6-{3-[({5-[2-chloro-5-(trifluoromethyl)phenyl]furan-2-yl}carbonyl)amino]phenyl}-N-[(3S)-piperidin-3-yl]pyrazine-2-carboxamide], for which the IC50 is less than 50 nM.

As to `CN(C)c1ccc(C(=O)Nc2cccc(-c3cnc(N)c(C(=O)N[C@H]4CCCNC4)n3)c2)c2ccccc12` [Example 900, 3-amino-6-[3-({[4-(dimethylamino)naphthalen-1-yl]carbonyl}amino)phenyl]-N-[(3S)-piperidin-3-yl]pyrazine-2-carboxamide], the IC50 is less than 50 nM.

As for `Nc1ncc(-c2cccc(NC(=O)c3ccc(-c4cnns4)cc3)c2)nc1C(=O)N[C@H]1CCCNC1` [Example 901, 3-amino-N-[(3S)-piperidin-3-yl]-6-[3-({[4-(1,2,3-thiadiazol-5-yl)phenyl]carbonyl}amino)phenyl]pyrazine-2-carboxamide], the IC50 is less than 50 nM.

As to `Cc1cc(C(=O)Nc2cccc(-c3cnc(N)c(C(=O)N[C@H]4CCCNC4)n3)c2)n(C)n1` [Example 902, 3-amino-6-(3-{[(1,3-dimethyl-1H-pyrazol-5-yl)carbonyl]amino}phenyl)-N-[(3S)-piperidin-3-yl]pyrazine-2-carboxamide], the IC50 is less than 50 nM.

`CN(C)c1ccc(C(=O)NCc2cccc(-c3cnc(N)c(C(=O)N[C@H]4CCCNC4)n3)c2)cc1` [Example 903, 3-amino-6-{3-[({[4-(dimethylamino)phenyl]carbonyl}amino)methyl]phenyl}-N-[(3S)-piperidin-3-yl]pyrazine-2-carboxamide]: the IC50 is less than 50 nM.

In the case of `Nc1ncc(-c2cccc(OCCO)c2)nc1C(=O)N[C@H]1CCCNC1` [Example 904, 3-amino-6-{3-[(2-hydroxyethyl)oxy]phenyl}-N-[(3S)-piperidin-3-yl]pyrazine-2-carboxamide], the IC50 is less than 50 nM.

Turning to `Nc1ncc(-c2cccc(CNS(=O)(=O)c3ccc4c(c3)CCO4)c2)nc1C(=O)N[C@H]1CCCNC1` [Example 905, 3-amino-6-(3-{[(2,3-dihydro-1-benzofuran-5-ylsulfonyl)amino]methyl}phenyl)-N-[(3S)-piperidin-3-yl]pyrazine-2-carboxamide], the IC50 is less than 50 nM.

As for `Nc1ncc(-c2cccc(CNS(=O)(=O)c3ccc4c(c3)OCCCO4)c2)nc1C(=O)N[C@H]1CCCNC1` [Example 906, 3-amino-6-(3-{[(3,4-dihydro-2H-1,5-benzodioxepin-7-ylsulfonyl)amino]methyl}phenyl)-N-[(3S)-piperidin-3-yl]pyrazine-2-carboxamide], the IC50 is less than 50 nM.

As for `Nc1ncc(-c2cccc(CNS(=O)(=O)c3ccc4cccnc4c3)c2)nc1C(=O)N[C@H]1CCCNC1` [Example 907, 3-amino-N-[(3S)-piperidin-3-yl]-6-(3-{[(quinolin-7-ylsulfonyl)amino]methyl}phenyl)pyrazine-2-carboxamide], the IC50 is 50 to 1000 nM.

For `Nc1ncc(-c2cccc(CNC(=O)Nc3ccc(-c4ccccc4)cc3)c2)nc1C(=O)N[C@H]1CCCNC1` [Example 908, 3-amino-6-[3-({[(biphenyl-4-ylamino)carbonyl]amino}methyl)phenyl]-N-[(3S)-piperidin-3-yl]pyrazine-2-carboxamide], the IC50 is less than 50 nM.

Consider `Nc1ncc(-c2cccc(NC(=O)c3ccc(Br)cc3F)c2)nc1C(=O)N[C@H]1CCCNC1` [Example 909, 3-amino-6-(3-{[(4-bromo-2-fluorophenyl)carbonyl]amino}phenyl)-N-[(3S)-piperidin-3-yl]pyrazine-2-carboxamide], for which the IC50 was less than 50 nM.

Consider `Nc1ncc(-c2cccc(NC(=O)c3cnc4ccccc4c3)c2)nc1C(=O)N[C@H]1CCCNC1` [Example 910, N-[3-(5-amino-6-{[(3S)-piperidin-3-ylamino]carbonyl}pyrazin-2-yl)phenyl]quinoline-3-carboxamide], for which the IC50 is less than 50 nM.

In the case of `COc1ccc2c(CC(=O)Nc3cccc(-c4cnc(N)c(C(=O)N[C@H]5CCCNC5)n4)c3)coc2c1` [Example 911, 3-amino-6-[3-({[6-(methyloxy)-1-benzofuran-3-yl]acetyl}amino)phenyl]-N-[(3S)-piperidin-3-yl]pyrazine-2-carboxamide], the IC50 is less than 50 nM.

For the compound `Nc1ncc(-c2cccc(NC(=O)c3ccccc3-c3ccc(C(F)(F)F)cc3)c2)nc1C(=O)N[C@H]1CCCNC1` [Example 912, 3-amino-N-[(3S)-piperidin-3-yl]-6-[3-({[4′-(trifluoromethyl)biphenyl-2-yl]carbonyl}amino)phenyl]pyrazine-2-carboxamide], the IC50 was less than 50 nM.

Regarding `Nc1ncc(-c2cccc(NC(=O)Cc3cc(C(F)(F)F)cc(C(F)(F)F)c3)c2)nc1C(=O)N[C@H]1CCCNC1` [Example 913, 3-amino-6-[3-({[3,5-bis(trifluoromethyl)phenyl]acetyl}amino)phenyl]-N-[(3S)-piperidin-3-yl]pyrazine-2-carboxamide], the IC50 is less than 50 nM.

In general, IC50 refers to the concentration needed to halve the response being measured.
